Laboratory results as given in patent US20190225650A1, “PEPTIDOMIMETIC MACROCYCLES AND USE THEREOF IN REGULATING HIF1ALPHA” (AILERON THERAPEUTICS, INC., priority 2013, published 2019).
Blank lines part the entries; values can stand above or below the molecule they belong to. Bridge positions count the residues as written; N and C are the ends. Square brackets hold non-standard residues; d marks the D form. Peptide text beside a SMILES is read from it. S5 = C=CCCC[C@](C)(N)C(=O)O; Nle = CCCC[C@H](N)C(=O)O

Key:
[1] = target: T1, GST-tagged p300 CH1 domain (AAs 302-423) / HIF1α (AAs 788-826) (Homo sapiens, UniProt Q09472); assay: Biolayer interferometry competition for binding to p300 CH1 domain; details: 300 nM p300 CH1
T1 construct: GST-tagged p300 CH1 domain (AAs 302-423)
Experimental: (§1) Biolayer inferometry (ForteBio, Menlo Park Calif.) was used to measure competition of SP-6 for HIF1α (AAs 788-826). Biotinylated HIF1α peptide was captured on […] biosensor tip. The association of 300 nM GST-tagged p300 CH1 domain (AAs 302-423) in the presence or absence of varying concentrations of SP-6 was measured for 240 s. Dissociation was monitored for a minimum of 200 s in the absence of free p300 or stapled peptide. Binding of p300 to biosensor immobilized HIF1α target was analyzed with instrument software and total response (R) was proportional to binding.
Inhibition of p300 binding was calculated as % inhibition=[…]. A concentration of 10 μM SP-6 blocked 99% of the total binding. The inhibition was dose-dependent, with 2 μM inhibiting 50% of p300/HIF1α binding.

[2] = target: T2, His6-tagged p300 (AA 323-423) (UniProt Q09472 323-423); assay: TR-FRET HIF1a/p300 displacement; grade = IC50 <=200 nM
T2 construct: range 323-423; also called p300-CH; not shown: His6 tag
Experimental: The ability of peptides to displace HIF1α c-terminal trans-activation domain from p300-CH was measured by a TR FRET assay. […] The complex was diluted to 300 nM final in complete assay media and competitor peptides were added. The complete assay media contained 150 mM NaCl (Sigma +S5150 or equivalent), 20 mM HEPES pH 7.4 (Boston Bioproducts, Ashland, Mass.; #BB-2076), 7.5 mM CHAPS (Thermo #28300 or equivalent), and 1 mM DTT. Protein and peptide were incubated at room temperature for 1 hour before the addition of anti-Flag-K and anti-6×HIS-D2 (CisBio, Bedford Mass.) HTRF reconstitution buffer (50 mM Phosphate pH 7, 0.8 Potassium Flouride, BSA 0.2%)¹ to a final concentration of 0.5 μM and 4 nM respectively. The reaction continued for an additional two hours at room temperature. The reaction was read on a TECAN F500 plate reader with settings recommended by CisBio. The ratio of donor to acceptor fluorescence was calculated. The resulting data was analyzed with Graphpad Prism 5.0. IC50 values were calculated for both proteins using the One Site Fit-LogIC50 equation and presented in the column “IC₅₀ (nM) (HIF1α_p300 Displacement+CHAPS)” of Table 6. ¹ Cisbio USA, Bedford, Mass.; 61HISDLB (lot 007A), 61FG2KLB (024A), HTRF Buffer (62RB3RDF)

[3] = target: T3, GST-tagged p300 CH1 domain (AAs 302-423) (UniProt Q09472 302-423); assay: BLI competition, 300 nM GST-p300 CH1 on immobilised HIF1α 788-826
T3 construct: range 302-423; not shown: GST tag
Experimental: as §1, with “Biotinylated” for “Biolayer inferometry (ForteBio, Menlo Park Calif.) was used to measure competition of SP-6 for HIF1α (AAs 788-826). Biotinylated”
A concentration of 10 μM SP-6 blocked 99% of the total binding. The inhibition was dose-dependent, with 2 μM inhibiting 50% of p300/HIF1α binding.

T1 sequence (Q09472 302-423): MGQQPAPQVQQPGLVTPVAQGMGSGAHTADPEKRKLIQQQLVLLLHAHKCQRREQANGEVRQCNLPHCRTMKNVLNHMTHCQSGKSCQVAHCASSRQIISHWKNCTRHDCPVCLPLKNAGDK
T3 sequence (Q09472 302-423 limits assumed): as the sequence (Q09472 302-423) above
T2 sequence (Q09472 323-423 limits assumed): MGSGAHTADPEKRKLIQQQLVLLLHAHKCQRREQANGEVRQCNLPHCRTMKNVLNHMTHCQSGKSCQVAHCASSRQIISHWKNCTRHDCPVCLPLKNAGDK

inhibition at 2 µM ([1]; 2 μM): 50%
inhibition at 10 µM ([1]; 10 μM): 99%
Molecule: CCCC[C@H](NC(=O)[C@H](CC(C)C)NC(=O)[C@@H](NC(=O)[C@H](CCC(=O)O)NC(=O)[C@H](CCC(=O)O)NC(=O)[C@H](CC(=O)O)NC(=O)[C@@H](NC(=O)[C@H](Cc1ccccc1)NC(C)=O)[C@@H](C)CC)C(C)C)C(=O)N[C@@]1(C)CCCC=CCCC[C@@](C)(C(=O)N[C@@H](CCCC)C(=O)N[C@@H](C)C(=O)N[C@@H](CC(C)C)C(=O)N[C@@H](CC(=O)O)C(=O)N[C@@H](CCCNC(=N)N)C(=O)N[C@H](C(N)=O)[C@@H](C)CC)NC(=O)[C@H]([C@@H](C)CC)NC(=O)[C@H](C(C)C)NC(=O)[C@H](CC(C)C)NC1=O [SP-6] (Ac-FIDEEVL[Nle][S5]LVI[S5][Nle]ALDRI-NH2; staple 9-13)

IC50 [2]: ≤ 200 nM
IC50 [3]: 2000 nM
B1: SP-6 (peptide)
peptide: Ac-FIDEEVL[Nle][S5]LVI[S5][Nle]ALDRI-NH2
modifications: staple 9-13
SMILES: CCCC[C@H](NC(=O)[C@H](CC(C)C)NC(=O)[C@@H](NC(=O)[C@H](CCC(=O)O)NC(=O)[C@H](CCC(=O)O)NC(=O)[C@H](CC(=O)O)NC(=O)[C@@H](NC(=O)[C@H](Cc1ccccc1)NC(C)=O)[C@@H](C)CC)C(C)C)C(=O)N[C@@]1(C)CCCC=CCCC[C@@](C)(C(=O)N[C@@H](CCCC)C(=O)N[C@@H](C)C(=O)N[C@@H](CC(C)C)C(=O)N[C@@H](CC(=O)O)C(=O)N[C@@H](CCCNC(=N)N)C(=O)N[C@H](C(N)=O)[C@@H](C)CC)NC(=O)[C@H]([C@@H](C)CC)NC(=O)[C@H](C(C)C)NC(=O)[C@H](CC(C)C)NC1=O
